Results reported in BindingDB's records for doi:10.7270/Q2QJ7FRJ (Nmmlsc, 2009).

Target: Cell division control protein 42 homolog (Homo sapiens, UniProt P60953)
Assay: wildtype Cdc42 GTP-binding inhibitors, SAR follow-up, biochemical, pyrazoline analogs, multiplex bead flow cytometry, Ki (AID 2019)
Conditions: not given

Sequence of Cell division control protein 42 homolog (P60953 whole entry): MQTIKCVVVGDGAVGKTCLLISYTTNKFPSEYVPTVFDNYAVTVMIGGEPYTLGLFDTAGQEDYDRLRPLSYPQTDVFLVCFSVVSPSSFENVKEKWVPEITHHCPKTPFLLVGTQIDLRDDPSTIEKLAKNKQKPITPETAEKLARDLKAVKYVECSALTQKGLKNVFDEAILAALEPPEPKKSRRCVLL

| EC50 | SMILES |
| --- | --- |
| 21 µM | COc1ccc(C2CC(c3ccc(F)cc3)=NN2c2cccc(F)c2)cc1OC (stereo not given) |
| 1.07 µM | NS(=O)(=O)c1ccc(N2N=C(c3ccccc3)CC2c2ccc(Br)cc2)cc1 (stereo not given) [UNM-0000306160] |
| 9.51 µM | COc1ccc(C2CC(c3cccnc3)=NN2c2ccc(S(N)(=O)=O)cc2)cc1 (stereo not given) |
| 2.99 µM | COc1ccc(C2CC(c3ccc(Br)cc3)=NN2c2ccc(S(N)(=O)=O)cc2)cc1 (stereo not given) [UNM-0000306138] |
| 4.26 µM | COc1ccc(C2CC(c3ccc(F)cc3)=NN2c2ccc(S(N)(=O)=O)cc2)cc1 (stereo not given) [4-[5-(4-fluorophenyl)-3-(4-methoxyphenyl)-3,4-dihydropyrazol-2-yl]benzenesulfonamide] |
| 3.11 µM | COc1ccc(C2CC(c3cccc(C(F)(F)F)c3)=NN2c2ccc(S(N)(=O)=O)cc2)cc1 (stereo not given) |
| 1.46 µM | COc1ccc(C2CC(c3cccc(OC)c3)=NN2c2ccc(S(N)(=O)=O)cc2)cc1 (stereo not given) [4-[5-(3-methoxyphenyl)-3-(4-methoxyphenyl)-3,4-dihydropyrazol-2-yl]benzenesulfonamide] |
| 3.32 µM | NS(=O)(=O)c1ccc(N2N=C(c3ccc(Cl)cc3)CC2c2ccccc2)cc1 (stereo not given) |
| 2.21 µM | COc1ccc(C2CC(c3ccc(C)cc3)=NN2c2ccc(S(N)(=O)=O)cc2)cc1 (stereo not given) |
| 3.77 µM | COc1ccc(C2CC(c3cccc(C)c3)=NN2c2ccc(S(N)(=O)=O)cc2)cc1 (stereo not given) [UNM-0000306153] |
| 30 µM | O=S(=O)(O)c1ccc(N2N=C(c3ccccc3)CC2c2ccccc2)cc1 (stereo not given) [UNM-0000305834] |
| 2.59 µM | COc1ccc(C2CC(c3ccccc3Cl)=NN2c2ccc(S(N)(=O)=O)cc2)cc1 (stereo not given) [4-[5-(2-chlorophenyl)-3-(4-methoxyphenyl)-3,4-dihydropyrazol-2-yl]benzenesulfonamide] |
| 1.3 µM | COc1ccc(C2CC(c3cccc(Cl)c3)=NN2c2ccc(S(N)(=O)=O)cc2)cc1 (stereo not given) [UNM-0000306134] |
| 2.3 µM | COc1ccc(C2CC(c3ccc(Cl)cc3)=NN2c2ccc(S(N)(=O)=O)cc2)cc1 (stereo not given) |
| 2.07 µM | COc1ccc(C2CC(c3cccc(Br)c3)=NN2c2ccc(S(N)(=O)=O)cc2)cc1 (stereo not given) [UNM-0000306113] |
| 2.86 µM | COc1ccc(C2CC(c3cccc(F)c3)=NN2c2ccc(S(N)(=O)=O)cc2)cc1 (stereo not given) [4-[5-(3-fluorophenyl)-3-(4-methoxyphenyl)-3,4-dihydropyrazol-2-yl]benzenesulfonamide] |

Same assay, conditions: inactive by the depositor's call

| EC50 | SMILES |
| --- | --- |
| 30 µM | COc1ccc(C2=NN(c3cccc(F)c3)C(c3ccc(Cl)cc3)C2)cc1 (stereo not given) [3-(4-chlorophenyl)-2-(3-fluorophenyl)-5-(4-methoxyphenyl)-3,4-dihydropyrazole] |
| 30 µM | CC(=O)Oc1ccc(C2=NN(c3ccccc3)C(c3ccccc3)C2)cc1 (stereo not given) |
| 30 µM | O=[N+]([O-])c1ccc([N+]2=N[C-](c3ccccc3)CC2c2ccccc2)cc1 (stereo not given) |
| 4.13 µM | COc1ccc(C2CC(c3ccccc3C)=NN2c2ccc(S(N)(=O)=O)cc2)cc1 (stereo not given) [UNM-0000306152] |
| 30 µM | COc1ccc(C2CC(c3ccccc3C(F)(F)F)=NN2c2ccc(S(N)(=O)=O)cc2)cc1 (stereo not given) [KUC103474N] |
| 30 µM | COc1ccc(C2=NN(c3ccc(Cl)cc3)C(c3ccccc3F)C2)cc1 (stereo not given) [UNM-0000305863] |
| 30 µM | CCc1ccc(C2=NN(c3ccc(S(N)(=O)=O)cc3)C(c3ccc(F)cc3)C2)cc1 (stereo not given) |
| 30 µM | COc1ccccc1N1N=C(c2ccccc2)CC1c1ccccc1 (stereo not given) [UNM-0000305855] |
| 30 µM | COc1ccc(C2CC(c3ccccc3)=NN2c2ccc(C(N)=O)cc2)cc1 (stereo not given) [UNM-0000305870] |
| 30 µM | NS(=O)(=O)c1ccc(N2N=C(c3ccccc3)CC2c2ccccc2)cc1 (stereo not given) [4-(3,5-diphenyl-3,4-dihydropyrazol-2-yl)benzenesulfonamide] |
| 30 µM | CN(C)c1ccc(C2CC(c3ccc(Br)cc3)=NN2c2ccccc2)cc1 (stereo not given) [UNM-0000305846] |
| 30 µM | Fc1ccccc1C1CC(c2ccc(Br)cc2)=NN1c1ccc(Br)cc1 (stereo not given) [2,5-bis(4-bromophenyl)-3-(2-fluorophenyl)-3,4-dihydropyrazole] |
| 30 µM | COc1ccc(C2=NN(c3ccc(Cl)c(Cl)c3)C(c3ccc(OC)cc3)C2)cc1 (stereo not given) [2-(3,4-dichlorophenyl)-3,5-bis(4-methoxyphenyl)-3,4-dihydropyrazole] |
| 30 µM | COc1ccc(C2CC(c3ccncc3)=NN2c2ccc(S(N)(=O)=O)cc2)cc1 (stereo not given) |
| 30 µM | COc1ccc(C2CC(C3CCCCC3)=NN2c2ccc(S(N)(=O)=O)cc2)cc1 (stereo not given) [4-[5-cyclohexyl-3-(4-methoxyphenyl)-3,4-dihydropyrazol-2-yl]benzenesulfonamide] |
| 30 µM | Fc1ccc(C2=NN(c3cccc(Br)c3)C(c3ccccc3)C2)cc1 (stereo not given) [2-(3-bromophenyl)-5-(4-fluorophenyl)-3-phenyl-3,4-dihydropyrazole] |
| 30 µM | COc1ccc(C2CC(c3cccc(N(C)C)c3)=NN2c2ccc(S(N)(=O)=O)cc2)cc1 (stereo not given) |
| 30 µM | COc1ccc(C2=NN(c3cccc(F)c3)C(c3ccc(OC)cc3)C2)cc1 (stereo not given) [2-(3-fluorophenyl)-3,5-bis(4-methoxyphenyl)-3,4-dihydropyrazole] |
| 3.37 µM | COc1ccc(C2CC(c3ccc(N(C)C)cc3)=NN2c2ccc(S(N)(=O)=O)cc2)cc1 (stereo not given) [KUC103422N] |
| 30 µM | Brc1ccc(N2N=C(c3ccccc3)CC2c2ccccc2)cc1 (stereo not given) |
| 30 µM | Clc1ccc(N2N=C(c3ccccc3)CC2c2ccccc2)cc1 (stereo not given) |
| 30 µM | COc1ccc(C2CC(c3ccccc3)=NN2c2ccc(Cl)c(C(=O)O)c2)cc1 (stereo not given) |
| 30 µM | COc1ccc(C2CC(c3ccc(C(F)(F)F)cc3)=NN2c2ccc(S(N)(=O)=O)cc2)cc1 (stereo not given) [4-[3-(4-methoxyphenyl)-5-[4-(trifluoromethyl)phenyl]-3,4-dihydropyrazol-2-yl]benzenesulfonamide] |
| 30 µM | CN(C)c1ccc(C2CC(c3ccc(Cl)cc3)=NN2c2ccccc2)cc1 (stereo not given) [UNM-0000305847] |
| 30 µM | COc1ccc(C2CC(c3ccccc3)=NN2c2ccc(Cl)c(C(=O)O)c2)cc1OC (stereo not given) [2-chloro-5-[3-(3,4-dimethoxyphenyl)-5-phenyl-3,4-dihydropyrazol-2-yl]benzoic acid] |
| 30 µM | COc1ccccc1C1CC(c2ccccc2)=NN1c1ccccc1 (stereo not given) |
| 30 µM | COc1ccc(C2CC(C)=NN2c2ccc(S(N)(=O)=O)cc2)cc1 (stereo not given) [4-[3-(4-methoxyphenyl)-5-methyl-3,4-dihydropyrazol-2-yl]benzenesulfonamide] |

| EC50 | SMILES |
| --- | --- |
| 30 µM | Cc1onc(-c2ccccc2)c1-c1ccc(S(N)(=O)=O)cc1 |
| 30 µM | Cc1ccc(-c2cc(C(F)(F)F)nn2-c2ccc(S(N)(=O)=O)cc2)cc1 [Celecoxib] |
| 30 µM | O=S(=O)(c1ccc(N2N=C(c3ccc(Br)cc3)CC2c2ccccc2)cc1)C(F)F (stereo not given) [5-(4-bromophenyl)-2-[4-(difluoromethylsulfonyl)phenyl]-3-phenyl-3,4-dihydropyrazole] |
| 30 µM | COc1ccc(C2=NN(c3ccccc3)C(c3ccc(Cl)cc3)C2)cc1 (stereo not given) [UNM-0000305833] |
| 30 µM | FC(F)(F)c1ccccc1C1CC(c2ccc(Br)cc2)=NN1c1ccccc1 (stereo not given) [5-(4-bromophenyl)-2-phenyl-3-[2-(trifluoromethyl)phenyl]-3,4-dihydropyrazole] |
| 30 µM | NS(=O)(=O)c1ccc(N2N=C(c3ccc(Br)cc3)CC2c2ccc(F)cc2)cc1 (stereo not given) [4-[5-(4-bromophenyl)-3-(4-fluorophenyl)-3,4-dihydropyrazol-2-yl]benzenesulfonamide] |
| 30 µM | COc1ccc(C2=NN(c3ccccc3F)C(c3ccc(F)cc3)C2)cc1 (stereo not given) [UNM-0000305860] |
| 30 µM | Cc1ccccc1N1N=C(c2ccccc2)CC1c1ccc(N(C)C)cc1 (stereo not given) [N,N-dimethyl-4-[2-(2-methylphenyl)-5-phenyl-3,4-dihydropyrazol-3-yl]aniline] |
| 30 µM | COc1ccc(C2CC(c3ccc(F)cc3)=NN2c2cc(Cl)ccc2Cl)cc1 (stereo not given) [2-(2,5-dichlorophenyl)-5-(4-fluorophenyl)-3-(4-methoxyphenyl)-3,4-dihydropyrazole] |
| 30 µM | COc1ccc(C2CC(c3ccc(F)cc3)=NN2c2ccccc2)cc1OC (stereo not given) [UNM-0000305864] |
| 30 µM | COc1ccc(C2CC(c3ccc(Br)cc3)=NN2c2ccccc2Cl)cc1 (stereo not given) [UNM-0000305832] |
| 34.4 µM | COc1ccc(C2=NN(c3ccccc3)C(c3ccccc3C(F)(F)F)C2)cc1 (stereo not given) |
| 30 µM | COc1ccc(C2C[C-](c3ccccc3)N=[N+]2c2ccc([N+](=O)[O-])cc2)cc1 (stereo not given) [3-(4-methoxyphenyl)-2-(4-nitrophenyl)-5-phenyl-3,4-dihydropyrazole] |
| 0.231 µM | O=S(=O)(c1ccc(N2N=C(c3ccccc3)CC2c2ccccc2)cc1)C(F)F (stereo not given) |
| 30 µM | COc1ccc(C2CC(c3ccc(Cl)cc3)=NN2c2ccccc2)cc1OC (stereo not given) [UNM-0000305858] |
| 30 µM | COc1ccc(C2=NN(c3ccccc3)C(c3ccc(OC)c(OC)c3C(=O)O)C2)cc1 (stereo not given) [UNM-0000305848] |
| 30 µM | O=[N+]([O-])c1cccc(C2C[C-](c3ccccc3)N=[N+]2c2ccccc2)c1 (stereo not given) [UNM-0000305857] |
| 30 µM | Clc1cccc(N2N=C(c3ccccc3)CC2c2ccccc2)c1 (stereo not given) |
| 30 µM | O=[N+]([O-])c1cccc(C2C[C-](c3ccc(F)cc3)N=[N+]2c2ccccc2)c1 (stereo not given) [5-(4-fluorophenyl)-3-(3-nitrophenyl)-2-phenyl-3,4-dihydropyrazole] |
| 5.05 µM | COc1ccc(-c2cc(-c3ccccc3)nn2-c2ccc(S(N)(=O)=O)cc2)cc1 [4-[5-(4-methoxyphenyl)-3-phenylpyrazol-1-yl]benzenesulfonamide] |
| 30 µM | Cc1ccccc1[N+]1=N[C-](c2ccccc2)CC1c1cccc([N+](=O)[O-])c1 (stereo not given) [UNM-0000305854] |
| 30 µM | FC(F)(F)c1cccc(N2N=C(c3ccc(Cl)cc3)CC2c2ccccc2Cl)c1 (stereo not given) [UNM-0000305859] |
| 30 µM | NS(=O)(=O)c1ccc(N2N=C(c3ccccc3)CC2c2ccccc2Br)cc1 (stereo not given) [4-[3-(2-bromophenyl)-5-phenyl-3,4-dihydropyrazol-2-yl]benzenesulfonamide] |
| 30 µM | O=[N+]([O-])c1ccc([N+]2=N[C-](c3ccccc3)CC2c2ccc(O)cc2)cc1 (stereo not given) [UNM-0000305838] |
| 30 µM | COc1ccc(C2CC(C(C)(C)C)=NN2c2ccc(S(N)(=O)=O)cc2)cc1 (stereo not given) [KUC103450N] |
| 30 µM | CN(C)c1ccc(C2CC(c3ccccc3)=NN2c2ccccc2)cc1 (stereo not given) [4-(2,5-diphenyl-3,4-dihydropyrazol-3-yl)-N,N-dimethylaniline] |
| 30 µM | O=C(O)c1ccc(N2N=C(c3ccccc3)CC2c2ccccc2)cc1 (stereo not given) |
